From publication PMC8600679, “Substituted Two- to Five-Ring Polycyclic Aromatic Compounds Are Potent Agonists of Atlantic Cod (Gadus morhua) Aryl Hydrocarbon Receptors Ahr1a and Ahr2a” (Environmental Science & Technology, 2021)

target: Atlantic cod Ahr1a (Gadus morhua, UniProt A0A6H1Z2L5); assay: cell-based; conditions: Ahr1a EC50 (nM), COS-7 cells, 24 h exposure
Sequence (A0A6H1Z2L5 1-957): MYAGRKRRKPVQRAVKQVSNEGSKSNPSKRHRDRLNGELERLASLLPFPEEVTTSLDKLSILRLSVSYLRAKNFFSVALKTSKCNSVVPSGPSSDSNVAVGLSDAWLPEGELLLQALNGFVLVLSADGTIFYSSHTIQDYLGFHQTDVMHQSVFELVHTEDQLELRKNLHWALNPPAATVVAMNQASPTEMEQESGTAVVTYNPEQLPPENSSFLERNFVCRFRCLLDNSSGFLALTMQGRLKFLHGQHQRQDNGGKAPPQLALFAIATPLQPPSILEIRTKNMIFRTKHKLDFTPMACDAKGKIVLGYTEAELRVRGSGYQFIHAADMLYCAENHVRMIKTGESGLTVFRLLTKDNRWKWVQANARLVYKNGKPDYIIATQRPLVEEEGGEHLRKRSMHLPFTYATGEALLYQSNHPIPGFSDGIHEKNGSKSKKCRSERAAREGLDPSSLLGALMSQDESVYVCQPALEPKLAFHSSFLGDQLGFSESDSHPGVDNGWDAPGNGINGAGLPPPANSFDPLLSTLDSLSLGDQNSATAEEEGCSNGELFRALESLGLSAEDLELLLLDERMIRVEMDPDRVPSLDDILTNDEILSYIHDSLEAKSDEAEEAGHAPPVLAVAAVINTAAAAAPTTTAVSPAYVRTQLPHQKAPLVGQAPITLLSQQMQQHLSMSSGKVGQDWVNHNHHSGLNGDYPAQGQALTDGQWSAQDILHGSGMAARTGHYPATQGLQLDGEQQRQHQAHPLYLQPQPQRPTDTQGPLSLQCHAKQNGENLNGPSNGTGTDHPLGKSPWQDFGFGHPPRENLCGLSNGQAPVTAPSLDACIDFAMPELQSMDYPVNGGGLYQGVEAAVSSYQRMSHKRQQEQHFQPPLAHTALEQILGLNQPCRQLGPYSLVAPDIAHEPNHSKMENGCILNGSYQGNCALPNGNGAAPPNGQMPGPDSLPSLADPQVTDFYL
Sequence (A0A8C5CZZ9 1-645 partner): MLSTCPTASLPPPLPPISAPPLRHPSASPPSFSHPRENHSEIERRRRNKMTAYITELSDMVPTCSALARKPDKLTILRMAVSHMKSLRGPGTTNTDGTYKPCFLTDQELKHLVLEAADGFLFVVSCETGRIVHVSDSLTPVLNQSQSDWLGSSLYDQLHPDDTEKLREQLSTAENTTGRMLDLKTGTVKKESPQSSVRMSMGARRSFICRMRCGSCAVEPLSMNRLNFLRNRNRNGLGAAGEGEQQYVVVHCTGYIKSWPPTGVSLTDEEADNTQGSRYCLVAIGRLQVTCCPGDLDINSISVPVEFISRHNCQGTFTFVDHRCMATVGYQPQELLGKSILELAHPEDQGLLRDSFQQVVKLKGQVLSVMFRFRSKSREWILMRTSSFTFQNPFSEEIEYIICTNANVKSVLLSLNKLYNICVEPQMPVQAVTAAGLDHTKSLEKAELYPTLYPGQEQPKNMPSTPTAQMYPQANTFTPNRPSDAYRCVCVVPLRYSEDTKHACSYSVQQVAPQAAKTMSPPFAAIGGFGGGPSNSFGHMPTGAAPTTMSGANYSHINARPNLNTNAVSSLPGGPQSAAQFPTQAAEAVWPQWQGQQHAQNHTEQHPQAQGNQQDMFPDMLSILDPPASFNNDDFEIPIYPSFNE

SMILES | EC50 [nM]
Oc1ccc2c(ccc3c4ccccc4ccc23)c1 [2-COH, Chrysene-2-ol] | 325
c1ccc2c(c1)cc1ccc3cccc4ccc2c1c34 [BAP, Benzo[a]pyrene] | 25.8

same assay, conditions: COS-7, read-out: Ahr1a Relative Emax (%)

SMILES | Emax [%]
Oc1ccc2c(ccc3c4ccccc4ccc23)c1 [2-COH, Chrysene-2-ol] | 91.1
c1ccc2c(c1)cc1ccc3cccc4ccc2c1c34 [BAP, Benzo[a]pyrene] | 107

same assay, conditions: COS-7, read-out: Efficacy (Emax, %) Ahr1a

SMILES | Emax [%]
c1ccc2c(c1)cc1ccc3cccc4ccc2c1c34 [BAP, Benzo[a]pyrene] | 107

same assay, conditions: COS-7; Supplementary Table S5; read-out: Efficacy (Emax, %) Ahr1a

SMILES | Emax [%]
Cc1ccc2c(ccc3c4ccccc4ccc23)c1 [2-MC, 2-Methylchrysene] | 125
Cc1ccc2ccc3c4ccccc4ccc3c2c1 [3-MC, 3-Methylchrysene] | 110
Cc1cccc2ccc3c4ccccc4ccc3c12 [4-MC, 4-Methylchrysene] | 112

same assay, conditions: COS-7; curve did not reach a plateau: relative response at the highest tested concentration, percent of TCDD maximum; read-out: Ahr1a Relative Emax (%), marked *

SMILES | Emax [%]
CCCc1ccc2ccc3ccccc3c2c1 [3-PP, 3-Propylphenanthrene] | 42.5
O[C@@H]1C=Cc2ccccc2[C@H]1O [R,R-1,2-DHN, (1R,2R)-1.2-Dihydronaphthalene-1,2-diol] | 145
O[C@@H]1C=Cc2c(ccc3ccccc23)[C@H]1O [R,R-1,2-DHP, (1R,2R)-1.2-Dihydrophenanthrene-1,2-diol] | 36.1

same assay, conditions: COS-7 cells, 24 h exposure; read-out: Ahr1a EC50

SMILES | EC50 [nM]
COc1cccc2c1ccc1c3ccccc3ccc21 [1-MOC, 1-Methoxychrysene] | 102
Cc1ccc2c(ccc3c4ccccc4ccc23)c1 [2-MC, 2-Methylchrysene] | 22
COc1ccc2c(ccc3c4ccccc4ccc23)c1 [2-MOC, 2-Methoxychrysene] | 13
Cc1cccc2ccc3c4ccccc4ccc3c12 [4-MC, 4-Methylchrysene] | 120

same assay, conditions: EC25 of TCDD divided by concentration of PAC giving 25% of TCDD response

SMILES | Ahr1a REP25
COc1cccc2c1ccc1c3ccccc3ccc21 [1-MOC, 1-Methoxychrysene] | 0.0277
Oc1ccc2c(ccc3c4ccccc4ccc23)c1 [2-COH, Chrysene-2-ol] | 0.00268
Cc1ccc2c(ccc3c4ccccc4ccc23)c1 [2-MC, 2-Methylchrysene] | 0.324
COc1ccc2c(ccc3c4ccccc4ccc23)c1 [2-MOC, 2-Methoxychrysene] | 0.244
Cc1ccc2ccc3c4ccccc4ccc3c2c1 [3-MC, 3-Methylchrysene] | 0.0413
CCCc1ccc2ccc3ccccc3c2c1 [3-PP, 3-Propylphenanthrene] | 0.00011
Cc1cccc2ccc3c4ccccc4ccc3c12 [4-MC, 4-Methylchrysene] | 0.041
c1ccc2c(c1)cc1ccc3cccc4ccc2c1c34 [BAP, Benzo[a]pyrene] | 0.0956
O[C@@H]1C=Cc2ccccc2[C@H]1O [R,R-1,2-DHN, (1R,2R)-1.2-Dihydronaphthalene-1,2-diol] | 0.00028
O[C@@H]1C=Cc2c(ccc3ccccc23)[C@H]1O [R,R-1,2-DHP, (1R,2R)-1.2-Dihydrophenanthrene-1,2-diol] | 0.00002

same assay, conditions: Potency (EC50, nM) Ahr1a, Supplementary Table S5

SMILES | EC50 [nM]
Oc1ccc2c(ccc3c4ccccc4ccc23)c1 [2-COH, Chrysene-2-ol] | 324

same assay, conditions: Supplementary Table S5; read-out: Potency (EC50, nM) Ahr1a

SMILES | EC50 [nM]
COc1cccc2c1ccc1c3ccccc3ccc21 [1-MOC, 1-Methoxychrysene] | 102
Cc1ccc2ccc3c4ccccc4ccc3c2c1 [3-MC, 3-Methylchrysene] | 101

same assay, conditions: Welch's t-test, Supporting Table S6

SMILES | Efficacy compared to TCDD with Ahr1a
COc1cccc2c1ccc1c3ccccc3ccc21 [1-MOC, 1-Methoxychrysene] | efficacies similar to that of TCDD
Oc1ccc2c(ccc3c4ccccc4ccc23)c1 [2-COH, Chrysene-2-ol] | efficacies similar to that of TCDD
Cc1ccc2c(ccc3c4ccccc4ccc23)c1 [2-MC, 2-Methylchrysene] | higher efficacies (superefficacies) than TCDD
COc1ccc2c(ccc3c4ccccc4ccc23)c1 [2-MOC, 2-Methoxychrysene] | efficacies similar to that of TCDD
Cc1ccc2ccc3c4ccccc4ccc3c2c1 [3-MC, 3-Methylchrysene] | efficacies similar to that of TCDD
Cc1cccc2ccc3c4ccccc4ccc3c12 [4-MC, 4-Methylchrysene] | higher efficacies (superefficacies) than TCDD
c1ccc2c(c1)cc1ccc3cccc4ccc2c1c34 [BAP, Benzo[a]pyrene] | higher efficacies (superefficacies) than TCDD

same assay, conditions: in vitro transactivation

SMILES | Activation of Ahr1a (agonist or not)
CCCc1ccc2ccc3ccccc3c2c1 [3-PP, 3-Propylphenanthrene] | activated both Ahr1a and Ahr2a
c1ccc2c(c1)cc1ccc3cccc4ccc2c1c34 [BAP, Benzo[a]pyrene] | agonist for both Ahrs
O[C@@H]1C=Cc2ccccc2[C@H]1O [R,R-1,2-DHN, (1R,2R)-1.2-Dihydronaphthalene-1,2-diol] | activated both Ahr1a and Ahr2a
O[C@@H]1C=Cc2c(ccc3ccccc23)[C@H]1O [R,R-1,2-DHP, (1R,2R)-1.2-Dihydrophenanthrene-1,2-diol] | activated both Ahr1a and Ahr2a

same assay, conditions: percent of maximum efficacy determined for TCDD; COS-7 cells, 24 h exposure; None = no agonistic response significantly different from solvent; read-out: Ahr1a Relative Emax (%)

SMILES | Emax [%]
COc1cccc2c1ccc1c3ccccc3ccc21 [1-MOC, 1-Methoxychrysene] | 97.3
Cc1ccc2c(ccc3c4ccccc4ccc23)c1 [2-MC, 2-Methylchrysene] | 125
COc1ccc2c(ccc3c4ccccc4ccc23)c1 [2-MOC, 2-Methoxychrysene] | 95.9
Cc1ccc2ccc3c4ccccc4ccc3c2c1 [3-MC, 3-Methylchrysene] | 111
Cc1cccc2ccc3c4ccccc4ccc3c12 [4-MC, 4-Methylchrysene] | 113

target: T1, Atlantic cod Ahr2a (Gadus morhua, UniProt A0A6H1Z3G8); assay: cell-based; conditions: Ahr2a EC50 (nM), COS-7 cells, 24 h exposure
T1 sequence (A0A6H1Z3G8 1-1127): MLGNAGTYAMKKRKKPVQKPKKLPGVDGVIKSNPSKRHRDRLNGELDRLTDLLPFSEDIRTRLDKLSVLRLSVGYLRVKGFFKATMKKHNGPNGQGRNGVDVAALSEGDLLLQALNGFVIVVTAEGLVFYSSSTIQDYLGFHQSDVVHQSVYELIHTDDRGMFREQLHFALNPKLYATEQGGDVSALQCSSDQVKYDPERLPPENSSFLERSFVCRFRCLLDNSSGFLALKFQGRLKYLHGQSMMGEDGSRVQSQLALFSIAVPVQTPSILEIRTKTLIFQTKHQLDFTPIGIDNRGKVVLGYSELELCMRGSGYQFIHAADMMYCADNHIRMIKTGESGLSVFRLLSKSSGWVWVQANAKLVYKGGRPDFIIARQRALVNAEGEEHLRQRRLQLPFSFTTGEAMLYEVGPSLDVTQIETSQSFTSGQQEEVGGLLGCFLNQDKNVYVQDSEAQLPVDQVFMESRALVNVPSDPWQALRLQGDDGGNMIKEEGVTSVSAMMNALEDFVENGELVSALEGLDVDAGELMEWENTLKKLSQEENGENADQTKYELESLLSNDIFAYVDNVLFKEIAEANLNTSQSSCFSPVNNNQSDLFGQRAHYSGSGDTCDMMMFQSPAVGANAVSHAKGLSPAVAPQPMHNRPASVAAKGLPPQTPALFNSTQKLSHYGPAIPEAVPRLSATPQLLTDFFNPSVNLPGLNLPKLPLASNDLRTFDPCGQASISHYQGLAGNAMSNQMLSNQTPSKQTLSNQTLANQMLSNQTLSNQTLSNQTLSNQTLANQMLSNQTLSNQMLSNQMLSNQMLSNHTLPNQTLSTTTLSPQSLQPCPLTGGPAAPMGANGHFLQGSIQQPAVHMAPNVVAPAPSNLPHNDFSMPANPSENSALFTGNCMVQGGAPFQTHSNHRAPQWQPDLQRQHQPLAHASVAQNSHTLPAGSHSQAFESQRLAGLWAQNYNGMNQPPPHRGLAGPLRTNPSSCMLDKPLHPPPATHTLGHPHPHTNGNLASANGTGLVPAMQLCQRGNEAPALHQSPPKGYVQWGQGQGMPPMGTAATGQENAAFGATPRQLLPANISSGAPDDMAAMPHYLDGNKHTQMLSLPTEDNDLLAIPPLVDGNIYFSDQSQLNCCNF

SMILES | EC50 [nM]
Oc1ccc2c(ccc3c4ccccc4ccc23)c1 [2-COH, Chrysene-2-ol] | 380
c1ccc2c(c1)cc1ccc3cccc4ccc2c1c34 [BAP, Benzo[a]pyrene] | 6.8

same assay, conditions: Ahr2a versus Ahr1a

SMILES | fold higher REP25 with Ahr2a compared to Ahr1a
c1ccc2c(c1)cc1ccc3cccc4ccc2c1c34 [BAP, Benzo[a]pyrene] | 5- to 10 fold
O[C@@H]1C=Cc2ccccc2[C@H]1O [R,R-1,2-DHN, (1R,2R)-1.2-Dihydronaphthalene-1,2-diol] | 5- to 10 fold

same assay, conditions: COS-7, read-out: Ahr2a Relative Emax (%)

SMILES | Emax [%]
Oc1ccc2c(ccc3c4ccccc4ccc23)c1 [2-COH, Chrysene-2-ol] | 40.8
c1ccc2c(c1)cc1ccc3cccc4ccc2c1c34 [BAP, Benzo[a]pyrene] | 103

same assay, conditions: COS-7, read-out: Efficacy (Emax, %) Ahr2a

SMILES | Emax [%]
c1ccc2c(c1)cc1ccc3cccc4ccc2c1c34 [BAP, Benzo[a]pyrene] | 103

same assay, conditions: COS-7; Supplementary Table S5; read-out: Efficacy (Emax, %) Ahr2a

SMILES | Emax [%]
Cc1ccc2c(ccc3c4ccccc4ccc23)c1 [2-MC, 2-Methylchrysene] | 127
COc1ccc2c(ccc3c4ccccc4ccc23)c1 [2-MOC, 2-Methoxychrysene] | 114
Cc1ccc2ccc3c4ccccc4ccc3c2c1 [3-MC, 3-Methylchrysene] | 102

same assay, conditions: COS-7; curve did not reach a plateau: relative response at the highest tested concentration, percent of TCDD maximum; read-out: Ahr2a Relative Emax (%), marked *

SMILES | Emax [%]
O[C@@H]1C=Cc2ccccc2[C@H]1O [R,R-1,2-DHN, (1R,2R)-1.2-Dihydronaphthalene-1,2-diol] | 140
O[C@@H]1C=Cc2c(ccc3ccccc23)[C@H]1O [R,R-1,2-DHP, (1R,2R)-1.2-Dihydrophenanthrene-1,2-diol] | 25.9

same assay, conditions: COS-7 cells, 24 h exposure; read-out: Ahr2a EC50

SMILES | EC50 [nM]
COc1cccc2c1ccc1c3ccccc3ccc21 [1-MOC, 1-Methoxychrysene] | 160
Cc1ccc2c(ccc3c4ccccc4ccc23)c1 [2-MC, 2-Methylchrysene] | 41.8
COc1ccc2c(ccc3c4ccccc4ccc23)c1 [2-MOC, 2-Methoxychrysene] | 20.1
Cc1ccc2ccc3c4ccccc4ccc3c2c1 [3-MC, 3-Methylchrysene] | 54
Cc1cccc2ccc3c4ccccc4ccc3c12 [4-MC, 4-Methylchrysene] | 128

same assay, conditions: EC25 of TCDD divided by concentration of PAC giving 25% of TCDD response

SMILES | Ahr2a REP25
COc1cccc2c1ccc1c3ccccc3ccc21 [1-MOC, 1-Methoxychrysene] | 0.0243
Oc1ccc2c(ccc3c4ccccc4ccc23)c1 [2-COH, Chrysene-2-ol] | 0.0038
Cc1ccc2ccc3c4ccccc4ccc3c2c1 [3-MC, 3-Methylchrysene] | 0.167
Cc1cccc2ccc3c4ccccc4ccc3c12 [4-MC, 4-Methylchrysene] | 0.0217
O[C@@H]1C=Cc2ccccc2[C@H]1O [R,R-1,2-DHN, (1R,2R)-1.2-Dihydronaphthalene-1,2-diol] | 0.00124
O[C@@H]1C=Cc2c(ccc3ccccc23)[C@H]1O [R,R-1,2-DHP, (1R,2R)-1.2-Dihydrophenanthrene-1,2-diol] | 0.000044

same assay, conditions: Supplementary Table S5; read-out: Potency (EC50, nM) Ahr2a

SMILES | EC50 [nM]
COc1cccc2c1ccc1c3ccccc3ccc21 [1-MOC, 1-Methoxychrysene] | 160
Cc1cccc2ccc3c4ccccc4ccc3c12 [4-MC, 4-Methylchrysene] | 128

same assay, conditions: Welch's t-test, Supporting Table S6

SMILES | Efficacy compared to TCDD via Ahr2a
COc1cccc2c1ccc1c3ccccc3ccc21 [1-MOC, 1-Methoxychrysene] | lower efficacies in comparison to TCDD
Oc1ccc2c(ccc3c4ccccc4ccc23)c1 [2-COH, Chrysene-2-ol] | lower efficacies in comparison to TCDD
Cc1ccc2c(ccc3c4ccccc4ccc23)c1 [2-MC, 2-Methylchrysene] | superefficacies
COc1ccc2c(ccc3c4ccccc4ccc23)c1 [2-MOC, 2-Methoxychrysene] | superefficacies
Cc1cccc2ccc3c4ccccc4ccc3c12 [4-MC, 4-Methylchrysene] | lower efficacies in comparison to TCDD

same assay, conditions: in vitro transactivation

SMILES | Activation of Ahr2a (agonist or not)
CCCc1ccc2ccc3ccccc3c2c1 [3-PP, 3-Propylphenanthrene] | activated both Ahr1a and Ahr2a
c1ccc2c(c1)cc1ccc3cccc4ccc2c1c34 [BAP, Benzo[a]pyrene] | agonist for both Ahrs
O[C@@H]1C=Cc2ccccc2[C@H]1O [R,R-1,2-DHN, (1R,2R)-1.2-Dihydronaphthalene-1,2-diol] | activated both Ahr1a and Ahr2a
O[C@@H]1C=Cc2c(ccc3ccccc23)[C@H]1O [R,R-1,2-DHP, (1R,2R)-1.2-Dihydrophenanthrene-1,2-diol] | activated both Ahr1a and Ahr2a

same assay, conditions: percent of maximum efficacy determined for TCDD; COS-7 cells, 24 h exposure; None = no agonistic response significantly different from solvent; read-out: Ahr2a Relative Emax (%)

SMILES | Emax [%]
COc1cccc2c1ccc1c3ccccc3ccc21 [1-MOC, 1-Methoxychrysene] | 66.4
Cc1ccc2c(ccc3c4ccccc4ccc23)c1 [2-MC, 2-Methylchrysene] | 127
COc1ccc2c(ccc3c4ccccc4ccc23)c1 [2-MOC, 2-Methoxychrysene] | 115
Cc1ccc2ccc3c4ccccc4ccc3c2c1 [3-MC, 3-Methylchrysene] | 102
CCCc1ccc2ccc3ccccc3c2c1 [3-PP, 3-Propylphenanthrene] | 12.4
Cc1cccc2ccc3c4ccccc4ccc3c12 [4-MC, 4-Methylchrysene] | 55.9
